We go through 42 compounds from patent US11208404B2 (PERENNA PHARMACEUTICALS, INC., priority 2017, dated 2021).

The assay has as its target ALCAT1 (Homo sapiens (Human), UniProt Q6UWP7). The assay can be described thus: In vitro acyltransferase assay for ALCAT1 inhibitors. The settings on record: for inhibition at 1 µM / % inh @ 1 μM: 1 μM compound; for IC50: ALCAT1 enzyme activity, triplicates, GraphPad, read-out: IC50. Type of assay: biochemical. An excerpt: The human ALCAT1 protein were expressed in Spodoptera frugiperda (Sf9) insect cells by using a Bac-to-Bac baculovirus expression system (Invitrogen) according to the manufacturer's instruction. High-titer recombinant baculovirus expressing the human ALCAT1 protein was generated by several rounds of viral amplification. The Sf9 cells were typically infected with recombinant baculovirus for 3 days, harvested in ice-cold phosphate-buffered saline (PBS), and homogenized in 20 mm NaCl by going through French press. The total cell lysates were centrifuged at 10,000×g for 1 hours at 4° C. to eliminate the nucleus fraction, followed by ultracentrifugation at 100,000×g to pallet the membrane fraction. The membrane fraction was resuspended in enzymatic buffer that contain 10% glycerol, quantified for protein concentration, aliquoted, and stored at −80° C.
ALCAT1 enzymatic activity was determined by measuring the conversion of monolysocardiolipin (MLCL) to cardiolipin or lysophosphatidylglycerol (LPG) to phosphatidylglycerol (PG) in an enzymatic reaction mixture that contained 50 mm Tris/HCl, pH 7.0, 100 μm lysophospholipids, 25 μm [^14C]acyl-CoA (50 mCi/mmol, American Radiolabeled Chemicals, Inc), and membrane fraction (0.5-2.5 μg) in a total volume of 200 μl. The reaction was incubated at room temperature for 30 min. The lipids were extracted will chloroform, dried, and separated by thin layer chromatography (TLC) with chloroform:hexane:methanol:acetic acid (50:30:10:5, v/v) or chloroform:methanol:water (65:25:4, v/v). After separation, TLC plates were exposed to a Phosphorlmager screen to visualize the radiolabeled products with a Molecular Dynamics Typhoon Scanner (Sunnyvale, Calif.). In some experiments, NBD-CoA was used at 100 μM to replace the [^14C]acyl-CoA in the enzymatic reaction. All quantitative data were expressed as mean±S.E. Statistical analyses for differences between two groups were carried out using a Student's t test.
Compound inhibitors for ALCAT1 enzyme were analyzed by an in vitro enzymatic assay as detailed above. Compound inhibitors were added to the enzymatic mixture at 1-20 μM concentrations before the start of the acyltransferase reaction.
Where multiple measurements were taken this is indicated by a “/” between multiple values.
IC50 values for each compound were analyzed in triplicates, and calculated by GraphPad software.

Setting [1] is: 10 μM compound, in vitro enzymatic assay.

Several values for one entry are separate records, joined by “and”; a condition that tells them apart may be missing. Equal values may be shown once.

Chain of ALCAT1 (Q6UWP7 whole entry): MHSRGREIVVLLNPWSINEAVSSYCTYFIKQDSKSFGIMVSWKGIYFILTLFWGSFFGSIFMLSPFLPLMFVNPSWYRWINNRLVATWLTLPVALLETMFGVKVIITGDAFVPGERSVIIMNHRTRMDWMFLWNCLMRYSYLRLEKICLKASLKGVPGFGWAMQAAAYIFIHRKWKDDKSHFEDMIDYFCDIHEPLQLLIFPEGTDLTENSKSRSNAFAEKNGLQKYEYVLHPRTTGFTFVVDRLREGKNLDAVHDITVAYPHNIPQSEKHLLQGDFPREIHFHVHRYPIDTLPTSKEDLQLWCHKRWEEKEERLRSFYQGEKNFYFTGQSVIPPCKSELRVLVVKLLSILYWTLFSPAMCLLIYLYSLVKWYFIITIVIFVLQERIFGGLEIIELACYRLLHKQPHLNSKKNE

For `Cc1ccc(C(=O)Nc2cc(-c3nnc(-c4ccco4)o3)ccc2F)cc1[N+](=O)[O-]` [Compound 334], where the note is “in vitro enzymatic assay”, testing at 1 µM gave an inhibition of 35%.
`O=C(Nc1cc(-c2nnc(-c3cncs3)o2)ccc1F)c1ccccc1F` [Compound 290, 2-fluoro-N-(2-fluoro-5-(5-(thiazol-5-yl)-1,3,4-oxadiazol-2-yl)phenyl)benzamide]: where the note is “in vitro enzymatic assay”, the “% inh @ 1 μM” value turned out to be 31% and the inhibition (usually the share of the control response that was lost under treatment) at 1 µM stood at 24%.
In the case of `O=C(Nc1cccc(-c2nnc(-c3ccco3)o2)c1)c1cc(OC(F)(F)F)ccc1F` [Compound 211, 2-Fluoro-N-(3-(5-(furan-2-yl)-1,3,4-oxadiazol-2-yl)phenyl)-5-(trifluoromethoxy)benzamide], the IC50 (commonly the midpoint of a concentration-inhibition curve) amounted to 96 nM. Further, under “in vitro enzymatic assay”, the “% inh @ 1 μM” value is recorded as 97% and 1 µM produced 95% inhibition.
On to `O=C(Nc1cc(-c2nnc(-c3ccco3)o2)ccc1Br)c1ccccc1F` [Compound 25], for which the inhibition at 10 µM under setting [1] worked out at 56%.
For the compound `O=C(Nc1ccnc(-c2nnc(-c3ccco3)o2)c1)c1ccccc1F` [Compound 52], the IC50 was found to be 750 nM. Where the note is “in vitro enzymatic assay”, the inhibition at 1 µM is 59%.
Consider `O=C(Nc1cccc(-c2nnc(-c3ccco3)o2)c1)c1cccc2ccoc12` [Compound 227], for which the IC50 came out at 160 nM. Under “in vitro enzymatic assay”, the “% inh @ 1 μM” value came out at 89% and the inhibition at 1 µM was 85%.
For the setting “in vitro enzymatic assay”, `O=C(Nc1cccc(-c2nnc(-c3ccco3)o2)c1)C1CCCCC1` [Compound 98] had an inhibition at 1 µM of 11%. Besides, under setting [1], the inhibition at 10 µM worked out at 2%.
As for `O=C(Nc1cc(-c2ncc(-c3ccco3)o2)ccc1F)c1cccnc1F` [Compound 288], where the note is “in vitro enzymatic assay”, the “% inh @ 1 μM” value worked out at 59% and 1 µM produced 48% inhibition.
Take `O=C(Nc1cccc(-c2nnc(-c3ccco3)o2)c1)c1cccc(OCc2ccccc2)c1` [Compound 71]: where the note is “in vitro enzymatic assay”, the inhibition at 1 µM was 51%. The compound also had an inhibition at 10 µM under setting [1] of 93%.
For `O=C(Nc1cccc(-c2nnc(-c3ccco3)o2)c1)c1ccccc1F` [Compound 1], the IC50 was 210 nM. For the same compound, where the note is “in vitro enzymatic assay”, the “% inh @ 1 μM” value came out at 63% and 1 µM produced 59% inhibition. In addition, the “% inh @ 10 μM” value under setting [1] was 48% and 49% and 79%.
For the setting “in vitro enzymatic assay”, `O=C(Nc1cccc(-c2nnc(-c3ccco3)o2)c1)c1cccc([N+](=O)[O-])c1` [Compound 87] gave an inhibition at 1 µM of 29%. The compound also returned an inhibition at 10 µM under setting [1] of 62%.
As for `COc1c(F)cccc1C(=O)Nc1cccc(-c2nnc(-c3ccco3)o2)c1` [Compound 220], the half-inhibitory concentration (IC50) was 120 nM. Moreover, under “in vitro enzymatic assay”, the “% inh @ 1 μM” value came to 94% and the inhibition at 1 µM came out at 96%.
Take `COc1c(Cl)cccc1C(=O)Nc1cccc(-c2nnc(-c3ccco3)o2)c1` [Compound 193, 3-Chloro-N-(3-(5-(furan-2-yl)-1,3,4-oxadiazol-2-yl)phenyl)-2-methoxybenzamide]: the IC50 was determined as 67 nM. This compound also returned an inhibition at 1 µM (in vitro enzymatic assay) of 92%. This compound also had an inhibition at 10 µM under setting [1] of 90%.
`O=C(Nc1cccc(-c2nnc(-c3cc[nH]n3)o2)c1)c1ccccc1F` [Compound 298, N-(3-(5-(1H-pyrazol-3-yl)-1,3,4-oxadiazol-2-yl)phenyl)-2-fluorobenzamide] gave an inhibition at 1 µM (in vitro enzymatic assay) of 15%.
Take `CCc1ccc(OC)c(C(=O)Nc2cccc(-c3nnc(-c4ccco4)o3)c2)c1` [Compound 280]: the IC50 is 120 nM. Under “in vitro enzymatic assay”, the “% inh @ 1 μM” value came out at 100% and at 1 µM the inhibition was 94%.
On to `COc1cc(NC(=O)c2ccccc2F)cc(-c2nnc(-c3ccco3)o2)c1` [Compound 133], for which, under “in vitro enzymatic assay”, the “% inh @ 1 μM” value worked out at 17% and 1 µM produced 19% inhibition.
On to `O=C(Nc1cccc(-c2nnc(-c3ccsc3)o2)c1)c1ccccc1F` [Compound 21], for which testing at 10 µM under setting [1] gave an inhibition of 85%.
Under “in vitro enzymatic assay”, `O=C(Nc1cc(-c2nnc(-c3ccc(Cl)o3)o2)c(F)cc1F)c1ccccc1F` [Compound 80] showed an inhibition at 1 µM of 22%.
The same measure, in the same setting: for `O=C(Nc1cc(Cl)cc(-c2nnc(-c3ccco3)o2)c1)c1ccccc1F` [Compound 295] the value was 37%.
`CC(C)Oc1ccc(Cl)cc1C(=O)Nc1cccc(-c2nnc(-c3ccco3)o2)c1` [Compound 478] gave an inhibition at 1 µM (in vitro enzymatic assay) of 57%. Under setting [1], the inhibition at 10 µM is 62%.
`O=C(Nc1cccc(-c2nnc(-c3ccc(Br)o3)o2)c1)c1ccccc1F` [Compound 18] yielded an inhibition at 10 µM under setting [1] of 2%.
Compound `O=C(Nc1cccc(-c2nnc(-c3ccco3)o2)c1)c1ccc(-c2ccccc2)cc1F` [Compound 74] registered an inhibition at 1 µM (in vitro enzymatic assay) of 4%. The compound also came in with an inhibition at 10 µM under setting [1] of 21%.
The matching figures for `COc1cccc(OC)c1C(=O)Nc1cccc(-c2nnc(-c3ccco3)o2)c1` [Compound 170]: 20% and 27%.
`O=C(Nc1cccc(-c2nnc(-c3ccco3)o2)c1)c1cccc2c1OCCC2` [Compound 296]: where the note is “in vitro enzymatic assay”, the “% inh @ 1 μM” value amounted to 73% and the inhibition at 1 µM came to 55%.
The matching figures for `CC(C)c1cccc(C(=O)Nc2cccc(-c3nnc(-c4ccco4)o3)c2)c1` [Compound 277]: 23/23% and 23%.
For the compound `O=C(Nc1cccc(-c2nnc(-c3ccco3)o2)c1)c1cccc(OC(F)(F)F)c1` [Compound 233], for the setting “in vitro enzymatic assay”, the “% inh @ 1 μM” value was 65% and the inhibition at 1 µM turned out to be 68%.
The compound `Nc1ccccc1C(=O)Nc1cccc(-c2nnc(-c3ccco3)o2)c1` [Compound 77] yielded an inhibition at 1 µM (in vitro enzymatic assay) of 37%. The inhibition at 10 µM under setting [1] came out at 21%.
Turning to `COc1ccc(C(F)(F)F)cc1C(=O)Nc1cccc(-c2nnc(-c3ccco3)o2)c1` [Compound 278], the IC50 amounted to 120 nM. Also, for the setting “in vitro enzymatic assay”, the “% inh @ 1 μM” value turned out to be 100% and the inhibition at 1 µM is 97%.
For `O=C(Nc1cccc(-c2nnc(-c3ccco3)o2)c1)c1ccncc1` [Compound 237], for the setting “in vitro enzymatic assay”, the “% inh @ 1 μM” value is listed as 46% and 1 µM produced 35% inhibition.
As for `COc1cccc(C(=O)Nc2cccc(-c3nnc(-c4ccco4)o3)c2)c1OC` [Compound 169], the IC50 came to 470 nM. The compound also gave an inhibition at 1 µM (in vitro enzymatic assay) of 74%. In addition, 10 µM produced 93% inhibition under setting [1].
`COc1ccc(Cl)cc1NC(=O)c1cccc(-c2nnc(-c3ccco3)o2)c1` [Compound 230]: the IC50 was 410 nM. Besides, for the setting “in vitro enzymatic assay”, the “% inh @ 1 μM” value is recorded as 89% and 1 µM produced 94% inhibition.
On to `O=C(Nc1cccc(-c2nnc(-c3ccc(Cl)o3)o2)n1)c1ccccc1F` [Compound 82], for which, for the setting “in vitro enzymatic assay”, the inhibition at 1 µM was 23%. Under setting [1], the inhibition at 10 µM was 3%.
The matching figures for `CC(=O)Nc1ccccc1C(=O)Nc1cccc(-c2nnc(-c3ccco3)o2)c1` [Compound 172]: 6% and 26%.
As for `CCCOc1ccc(Br)cc1C(=O)Nc1cccc(-c2nnc(-c3ccco3)o2)c1` [Compound 119, 5-Bromo-N-(3-(5-(furan-2-yl)-1,3,4-oxadiazol-2-yl)phenyl)-2-propoxybenzamide], the IC50 was determined as 90 nM. The compound further gave an inhibition at 1 µM (in vitro enzymatic assay) of 92%. For the same compound, under setting [1], the inhibition at 10 µM is 95%.
`O=C(Nc1cccc(-c2nnc(-c3ccco3)o2)c1)c1ccco1` [Compound 100] yielded an inhibition at 1 µM (in vitro enzymatic assay) of 3%. Moreover, the inhibition at 10 µM under setting [1] amounted to 7%.
`CCCOc1ccccc1C(=O)Nc1cccc(-c2nnc(-c3ccco3)o2)c1` [Compound 175]: the IC50 came to 150 nM. In addition, at 1 µM the inhibition (in vitro enzymatic assay) was 90%. Testing at 10 µM under setting [1] gave an inhibition of 100%.
Take `O=C(Nc1cccc(-c2nnc(-c3ccco3)o2)c1)c1cccc(Br)c1` [Compound 203]: the IC50 came out at 1900 nM.
In turn, `COc1ccc(C(=O)O)cc1C(=O)Nc1cccc(-c2nnc(-c3ccco3)o2)c1` [Compound 114] showed an inhibition at 1 µM (in vitro enzymatic assay) of 36%. In addition, under setting [1], the inhibition at 10 µM amounted to 48%.
As to `O=C(Nc1cccc(-c2nnc(-c3ccco3)o2)c1)c1ccccc1Br` [Compound 5], the IC50 came out at 4100 nM. In addition, the inhibition at 10 µM under setting [1] turned out to be 39%.
`O=C(Nc1cccc(-c2nnc(-c3ccco3)o2)c1)c1cc(Br)ccc1OCC(F)(F)F` [Compound 226, 5-Bromo-N-(3-(5-(furan-2-yl)-1,3,4-oxadiazol-2-yl)phenyl)-2-(2,2,2-trifluoroethoxy)benzamide]: the IC50 turned out to be 60 nM. Besides, where the note is “in vitro enzymatic assay”, the “% inh @ 1 μM” value was 99% and the inhibition at 1 µM came out at 100%.
For the compound `CCCOc1ccc(Cl)cc1C(=O)Nc1cccc(-c2nnc(-c3ccco3)o2)c1` [Compound 123, 5-Chloro-N-(3-(5-(furan-2-yl)-1,3,4-oxadiazol-2-yl)phenyl)-2-propoxybenzamide], the IC50 was determined as 87 nM. In addition, testing at 1 µM (in vitro enzymatic assay) gave an inhibition of 90%. Testing at 10 µM under setting [1] gave an inhibition of 100%.
Take `COc1ccc(Cl)cc1C(=O)Nc1cc(-c2nnc(-c3cnco3)o2)ccc1F` [Compound 364]: the IC50 was found to be 120 nM.
